ChEMBL document CHEMBL3351572, “Almiramide D, cytotoxic peptide from the marine cyanobacterium Oscillatoria nigroviridis” (Bioorg Med Chem, 2014)
Where a SMILES comes first, the peptide text is derived from it. [ ]: non-standard residue; d: D form. The star is where a group is joined. Oct7ynoyl(2R-Me) = C#CCCCC[C@@H](C)C(=O)*; NMeF = CN[C@@H](Cc1ccccc1)C(=O)O; NMeI = CC[C@H](C)[C@H](NC)C(=O)O; NMeV = CN[C@H](C(=O)O)C(C)C; NMeA = CN[C@@H](C)C(=O)O

Experiments:
[1] = Cytotoxicity against human PC3 cells after 48 hrs by alamar blue assay; type: functional, cell-based; details: PC-3, 48 h
HeLa = assay: Cytotoxicity against human HeLa cells after 48 hrs by alamar blue assay; type: functional, cell-based
HT-29 = assay: Cytotoxicity against human HT-29 cells after 48 hrs by alamar blue assay; type: functional, cell-based; details: HT-29, 48 h
MDA-MB-231 = assay: Cytotoxicity against human MDA-MB-231 cells after 48 hrs by alamar blue assay; type: functional, cell-based; details: MDA-MB-231, 48 h
A549 = assay: Cytotoxicity against human A549 cells after 48 hrs by alamar blue assay; type: functional, cell-based; details: A549, 48 h
Artemia = assay: Cytotoxicity against brine shrimps larvae assessed as mortality after 48 hrs; type: organism-based; details: in vivo

Row | Structure (SMILES) | IC50 [1] [µM] | IC50 (HeLa) [µM] | IC50 (HT-29) [µM] | IC50 (MDA-MB-231) [µM] | IC50 (A549) [µM] | Activity (Artemia)
1 | C#CCCCC[C@@H](C)C(=O)N(C)[C@H](C(=O)N(C)[C@H](C(=O)N[C@H](C(=O)N(C)[C@@H](C)C(=O)N(C)[C@@H](Cc1ccccc1)C(N)=O)C(C)C)C(C)C)C(C)C [ALMIRAMIDE B] ({Oct7ynoyl(2R-Me)}-[NMeV][NMeV]V[NMeA][NMeF]-NH2) | 107 | 53 | 100 | 13 | 76 | 
2 | COc1cccc2c1C(=O)c1c(O)c3c(c(O)c1C2=O)C[C@@](O)(C(=O)CO)C[C@@H]3O[C@H]1C[C@H](N)[C@H](O)[C@H](C)O1 [DOXORUBICIN] | 17 |  |  |  | 14 | Non-toxic
3 | C#CCCCC[C@@H](C)C(=O)N(C)[C@H](C(=O)N(C)[C@H](C(=O)N[C@H](C(=O)N(C)[C@H](C(=O)N[C@@H](C)C(N)=O)[C@@H](C)CC)[C@@H](C)CC)C(C)C)C(C)C ({Oct7ynoyl(2R-Me)}-[NMeV][NMeV]I[NMeI]A-NH2) | 62 | 17 | 91 | 821 | 59 | 
